{"source": "ChEMBL document CHEMBL2331154", "about": "(J Med Chem, 2013)", "key": {"[1]": {"target": "T1, Heat shock protein HSP 90-alpha (Homo sapiens, UniProt P07900)", "assay": "Binding affinity to recombinant Hsp90 alpha (unknown origin) by surface plasmon resonance"}, "[2]": {"target": "T1, Heat shock protein HSP 90-alpha", "assay": "Inhibition of Hsp90 alpha (unknown origin) ATPase activity after 60 mins by fluorimetry"}, "[3]": {"target": "T1, Heat shock protein HSP 90-alpha", "assay": "Inhibition of Hsp90 alpha in human HeLa cells assessed as reduction in ERK1/ERK2 level at 50 uM after 24 hrs by Western blot analysis", "type": "cell-based"}, "[4]": {"target": "T1, Heat shock protein HSP 90-alpha", "assay": "Inhibition of Hsp90 alpha (unknown origin) assessed as thermal-induced citrate synthase aggregation at 0.3 uM by fluorimetry relative to control"}, "HeLa [5]": {"test_system": "HeLa", "assay": "Increase in Hsp70 level in human HeLa cells at 50 uM after 24 hrs by Western blot analysis", "type": "functional, cell-based"}, "[6]": {"target": "T1, Heat shock protein HSP 90-alpha", "assay": "Inhibition of Hsp90 alpha (unknown origin) assessed as thermal-induced citrate synthase aggregation at 4 fold molar excess by fluorimetry"}, "[7]": {"target": "T1, Heat shock protein HSP 90-alpha", "assay": "Inhibition of Hsp90 alpha in human HeLa cells assessed as reduction in p-AKT level at 50 uM after 24 hrs by Western blot analysis", "type": "cell-based"}, "HeLa [8]": {"test_system": "HeLa", "assay": "Cytotoxicity against human HeLa cells assessed as cell viability up to 100 uM after 24 hrs by MTT assay", "type": "cell-based"}}, "note": "Activity calls are given as the source filed them. No cut-off for these calls is given here."}
{"molecule": "O[C@@H]1C[C@@]2(O)CO[C@H]3OCC[C@@H]1[C@H]32", "values": [{"measurement": "Kd", "setting": "[1]", "result": "Not Active"}]}
{"molecule": "O=C(OC[C@H]1O[C@@H](O[C@@H]2C[C@@]3(O)CO[C@H]4OCC[C@@H]2[C@H]43)[C@H](O)[C@@H](O)[C@@H]1O)c1ccc(O)cc1", "values": [{"measurement": "Kd", "setting": "[1]", "result": "Not Active"}]}
{"molecule": "O=C(O[C@@H]1C[C@@]2(O)CO[C@H]3O[C@H](O)C[C@@H]1[C@H]32)c1ccc(O)cc1", "note": "[CATALPIN]", "values": [{"measurement": "Kd", "setting": "[1]; read-out: Kd", "result": 5920, "unit": "nM"}]}
{"molecule": "CO[C@H]1C[C@@H]2[C@@H]3[C@@H](OC[C@]3(O)C[C@H]2OC(=O)c2ccc(O)cc2)O1", "values": [{"measurement": "Kd", "setting": "[1]", "result": "Not Active"}]}
{"molecule": "O=C(O[C@@H]1C=C(CO)[C@@H]2[C@H](O[C@@H]3O[C@H](CO)[C@@H](O)[C@H](O)[C@H]3O)OC=C[C@@H]21)c1ccc(O)cc1", "values": [{"measurement": "Kd", "setting": "[1]", "result": "Not Active"}]}
{"molecule": "O=C(O[C@@H]1C[C@@](O)(CO)[C@H]2[C@H](O[C@@H]3O[C@H](CO)[C@@H](O)[C@H](O)[C@H]3O)OC=C[C@H]21)c1ccc(O)cc1", "values": [{"measurement": "Kd", "setting": "[1]; read-out: Kd", "result": 31, "unit": "nM"}]}
{"molecule": "O=C(O[C@H]1[C@@H]2C=CO[C@@H](O[C@@H]3O[C@H](CO)[C@@H](O)[C@H](O)[C@H]3O)[C@@H]2[C@@]2(CO)O[C@@H]12)c1ccc(O)cc1", "note": "[CATALPOSIDE]", "values": [{"measurement": "Kd", "setting": "[1]; read-out: Kd", "result": 12, "unit": "nM"}, {"measurement": "inhibition", "setting": "[2]", "result": "Dose-dependent effect"}]}
{"molecule": "O=C(/C=C/c1ccc(O)cc1)O[C@H]1[C@@H]2C=CO[C@@H](O[C@@H]3O[C@H](CO)[C@@H](O)[C@H](O)[C@H]3O)[C@@H]2[C@@]2(CO)O[C@@H]12", "note": "[SPECIOSIDE]", "values": [{"measurement": "Kd", "setting": "[1]; read-out: Kd", "result": 26, "unit": "nM"}, {"measurement": "inhibition", "setting": "[2]", "result": "Dose-dependent effect"}]}
{"molecule": "COc1cc(/C=C/C(=O)O[C@H]2[C@@H]3C=CO[C@@H](O[C@@H]4O[C@H](CO)[C@@H](O)[C@H](O)[C@H]4O)[C@@H]3[C@@]3(CO)O[C@@H]23)ccc1O", "values": [{"measurement": "Kd", "setting": "[1]", "result": "Not Active"}]}
{"molecule": "O[C@H]1[C@@H]2CCO[C@@H]3OC[C@@](O)([C@@H]32)[C@@H]1O", "note": "[REHMAGLUTIN A]", "values": [{"measurement": "Kd", "setting": "[1]; read-out: Kd", "result": 2390, "unit": "nM"}]}
{"molecule": "O=C(OC[C@H]1O[C@@H](O[C@@H]2OC=C[C@@H]3[C@H]2[C@](O)(CO)C[C@H]3OC(=O)c2ccc(O)cc2)[C@H](O)[C@@H](O)[C@@H]1O)c1ccc(O)cc1", "values": [{"measurement": "Kd", "setting": "[1]; read-out: Kd", "result": 139, "unit": "nM"}]}
{"molecule": "O=C(O[C@H]1[C@@H]2CCO[C@@H](O[C@@H]3O[C@H](CO)[C@@H](O)[C@H](O)[C@H]3O)[C@@H]2[C@@]2(CO)O[C@@H]12)c1ccc(O)cc1", "values": [{"measurement": "Kd", "setting": "[1]; read-out: Kd", "result": 16, "unit": "nM"}]}
{"molecule": "O=C(O[C@H]1[C@@H]2C=CO[C@@H](O[C@@H]3O[C@H](CO)[C@@H](O)[C@H](O)[C@H]3O)[C@@H]2[C@@]2(CO)O[C@@H]12)[C@H]1[C@H](C(=O)O[C@H]2[C@@H]3C=CO[C@@H](O[C@@H]4O[C@H](CO)[C@@H](O)[C@H](O)[C@H]4O)[C@@H]3[C@@]3(CO)O[C@@H]23)[C@@H](c2ccc(O)cc2)[C@@H]1c1ccc(O)cc1", "note": "[ARGENTEOSIDE A]", "values": [{"measurement": "inhibition", "setting": "[3]", "result": "Active"}, {"measurement": "Kd", "setting": "[1]; read-out: Kd", "result": 14, "unit": "nM"}, {"measurement": "inhibition", "setting": "[4]", "result": "Active"}, {"measurement": "inhibition", "setting": "[2]", "result": "Dose-dependent effect"}, {"measurement": "Activity", "setting": "HeLa [5]", "result": "inactive"}, {"measurement": "inhibition", "setting": "[6]", "result": "Active"}, {"measurement": "inhibition", "setting": "[7]", "result": "Active"}, {"measurement": "Activity", "setting": "HeLa [8]", "result": "Non-toxic"}]}
{"molecule": "COc1cc(/C=C/C(=O)O[C@@H]2C[C@@](O)(CO)[C@H]3[C@H](O[C@@H]4O[C@H](CO)[C@@H](O)[C@H](O)[C@H]4O)OC=C[C@H]32)ccc1O", "values": [{"measurement": "Kd", "setting": "[1]", "result": "Not Active"}]}
{"molecule": "O=C(/C=C/c1ccc(O)c(O)c1)O[C@@H]1C2C=CO[C@H](O[C@@H]3O[C@H](CO)[C@@H](O)[C@H](O)[C@H]3O)C2[C@]2(CO)O[C@H]12", "note": "(stereo partly specified) [VERMINOSIDE]", "values": [{"measurement": "Kd", "setting": "[1]; read-out: Kd", "result": 348, "unit": "nM"}]}
{"molecule": "O=C(/C=C/c1ccc(O)cc1)O[C@H]1[C@@H]2C=CO[C@@H](O[C@@H]3O[C@H](CO)[C@@H](O)[C@H](O)[C@H]3O)[C@@H]2[C@@](O)(CO)[C@@H]1O", "note": "[STEREOSPERMOSIDE]", "values": [{"measurement": "Kd", "setting": "[1]", "result": "Not Active"}]}
{"molecule": "O=C(C=Cc1ccc(O)cc1)O[C@@H]1C[C@@](O)(CO)[C@H]2[C@H](O[C@@H]3O[C@H](CO)[C@@H](O)[C@H](O)[C@H]3O)OC=C[C@H]21", "note": "(mixture of isomers)", "values": [{"measurement": "Kd", "setting": "[1]", "result": "Not Active"}]}
{"molecule": "O=C(/C=C\\c1ccc(O)cc1)O[C@@H]1C[C@@](O)(CO)[C@H]2[C@H](O[C@@H]3O[C@H](CO)[C@@H](O)[C@H](O)[C@H]3O)OC=C[C@H]21", "values": [{"measurement": "Kd", "setting": "[1]; read-out: Kd", "result": 73, "unit": "nM"}]}
{"molecule": "C=C[C@H]1[C@H](O[C@@H]2O[C@H](CO)[C@@H](O)[C@H](O)[C@H]2O)OC=C2C(=O)OCC[C@H]21", "note": "[SWEROSIDE]", "values": [{"measurement": "Kd", "setting": "[1]", "result": "Not Active"}]}
{"molecule": "O=C(O[C@@H]1C[C@@]2(O)CO[C@@H]3CC1C2[C@H](O[C@@H]1O[C@H](CO)[C@@H](O)[C@H](O)[C@H]1O)O3)c1ccc(O)cc1", "values": [{"measurement": "Kd", "setting": "[1]", "result": "Not Active"}]}
{"molecule": "O=C(O[C@H]1[C@@H]2C=CO[C@@H](O[C@@H]3O[C@H](CO)[C@@H](O)[C@H](O)[C@H]3O)[C@@H]2[C@@]2(CO)O[C@@H]12)[C@H]1[C@H](c2ccc(O)cc2)[C@H](C(=O)O[C@H]2[C@@H]3C=CO[C@@H](O[C@@H]4O[C@H](CO)[C@@H](O)[C@H](O)[C@H]4O)[C@@H]3[C@@]3(CO)O[C@@H]23)[C@H]1c1ccc(O)cc1", "note": "[ARGENTEOSIDE B]", "values": [{"measurement": "Kd", "setting": "[1]; read-out: Kd", "result": 50, "unit": "nM"}, {"measurement": "inhibition", "setting": "[2]", "result": "Dose-dependent effect"}]}
{"molecule": "C=C[C@H]1[C@H](O[C@@H]2O[C@H](CO)[C@@H](O)[C@H](O)[C@H]2O)OC=C(C(=O)OC)[C@H]1CC=O", "note": "[SECOLOGANIN]", "values": [{"measurement": "Kd", "setting": "[1]", "result": "Not Active"}]}
{"molecule": "C[C@H]1[C@H]2[C@H](O[C@@H]3O[C@H](CO)[C@@H](O)[C@H](O)[C@H]3O)OC[C@](C)(O)[C@H]2C[C@@H]1O", "note": "[ADENOSMOSIDE]", "values": [{"measurement": "Kd", "setting": "[1]", "result": "Not Active"}]}
{"molecule": "COc1ccc(C=CC(=O)O[C@@H]2C[C@@](O)(CO)[C@H]3[C@H](O[C@@H]4O[C@H](CO)[C@@H](O)[C@H](O)[C@H]4O)OC=C[C@H]32)cc1O", "note": "(mixture of isomers)", "values": [{"measurement": "Kd", "setting": "[1]", "result": "Not Active"}]}
{"molecule": "COc1cc(C(=O)O[C@H]2[C@@H]3C=CO[C@@H](O[C@@H]4O[C@H](CO)[C@@H](O)[C@H](O)[C@H]4O)[C@@H]3[C@@]3(CO)O[C@@H]23)ccc1O", "note": "[PICROSIDE II]", "values": [{"measurement": "Kd", "setting": "[1]", "result": "Not Active"}]}
{"molecule": "COc1ccc(C=CC(=O)O[C@@H]2C[C@@](O)(CO)[C@H]3[C@H](O[C@@H]4O[C@H](CO)[C@@H](O)[C@H](O)[C@H]4O)OC=C[C@H]32)cc1", "note": "(mixture of isomers)", "values": [{"measurement": "Kd", "setting": "[1]", "result": "Not Active"}]}
